# Laboratory results taken from patent US20260250322A1, “NEW PEPTIDES AS SELECTIVE IL-23 RECEPTOR INHIBITORS” (SANOFI, priority 2023, published 2026).
# Numbered stars: 1 amine (or outer) side, 2 acyl side, 3 side chain; on linkers, the order of the positions; unused ones are H or OH. Bridge positions count the residues as written; N and C are the ends. Square brackets hold non-standard residues; d marks the D form. Peptide text beside a SMILES is read from it. Tyr(Me) = Yme = 4-methoxy-L-phenylalanine (O-methyl-tyrosine), COc1ccc(C[C@H](N[*:1])C(=O)[*:2])cc1; Trp(1-Me) = Cn1cc(C[C@H](N)C(=O)O)c2ccccc21; 1Nal = N[C@@H](Cc1cccc2ccccc12)C(=O)O; 2Nal = N[C@@H](Cc1ccc2ccccc2c1)C(=O)O; dOrn = NCCC[C@@H](N)C(=O)O; Orn = NCCC[C@H](N)C(=O)O; Thp = NC1(C(=O)O)CCOCC1; Aib = CC(C)(N)C(=O)O; Ahx = NCCCCCC(=O)O; Ava = NCCCCC(=O)O
# T1: IL-23 receptor on the surface of HEK-Blue IL-23 cells (UniProt Q5VWK5 24-629, limits assumed)
# T1 sequence (looked up): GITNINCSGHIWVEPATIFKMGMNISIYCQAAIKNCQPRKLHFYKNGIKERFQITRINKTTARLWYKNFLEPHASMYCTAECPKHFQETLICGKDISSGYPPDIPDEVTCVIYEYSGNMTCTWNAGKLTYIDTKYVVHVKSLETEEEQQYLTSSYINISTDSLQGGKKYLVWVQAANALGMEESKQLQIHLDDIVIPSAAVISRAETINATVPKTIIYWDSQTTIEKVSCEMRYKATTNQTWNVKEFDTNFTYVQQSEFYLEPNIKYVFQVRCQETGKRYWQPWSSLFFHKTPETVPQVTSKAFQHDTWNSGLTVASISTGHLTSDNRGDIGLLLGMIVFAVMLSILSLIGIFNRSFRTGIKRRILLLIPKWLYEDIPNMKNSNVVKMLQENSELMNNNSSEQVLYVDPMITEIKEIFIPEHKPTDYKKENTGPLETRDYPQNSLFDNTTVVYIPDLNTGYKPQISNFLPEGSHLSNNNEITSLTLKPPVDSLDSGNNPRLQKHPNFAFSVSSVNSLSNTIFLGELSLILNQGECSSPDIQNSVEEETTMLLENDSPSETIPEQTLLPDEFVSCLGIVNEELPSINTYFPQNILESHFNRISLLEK
# T2: human IL-23R (Homo sapiens, UniProt Q5VWK5)
# T2 sequence (Q5VWK5 24-355 limits assumed): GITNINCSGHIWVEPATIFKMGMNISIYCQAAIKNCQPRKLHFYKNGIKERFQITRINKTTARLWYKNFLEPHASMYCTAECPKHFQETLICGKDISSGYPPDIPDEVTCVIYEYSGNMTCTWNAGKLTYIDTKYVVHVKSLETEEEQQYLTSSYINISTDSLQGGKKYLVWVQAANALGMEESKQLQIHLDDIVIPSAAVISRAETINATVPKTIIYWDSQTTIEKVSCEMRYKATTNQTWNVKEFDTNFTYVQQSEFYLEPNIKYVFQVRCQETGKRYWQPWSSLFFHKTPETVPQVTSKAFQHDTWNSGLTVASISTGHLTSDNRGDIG
# Target: T1, IL-23 receptor on the surface of …
# Assay: cell-based or functional assay
# Settings: not given
row,Inhibition of IL-23 induced pSTAT3 (IC50 nM) [nM],Molecule
1,334,Ac-[dK]NTWQL[Tyr(Me)][2Nal][Aib]DNN-NH2 (lactam 1-10; SMILES COc1ccc(C[C@@H]2NC(=O)[C@H](CC(C)C)NC(=O)[C@H](CCC(N)=O)NC(=O)[C@H](Cc3c[nH]c4ccccc34)NC(=O)[C@H]([C@@H](C)O)NC(=O)[C@H](CC(N)=O)NC(=O)[C@H](NC(C)=O)CCCCNC(=O)C[C@@H](C(=O)N[C@@H](CC(N)=O)C(=O)N[C@@H](CC(N)=O)C(N)=O)NC(=O)C(C)(C)NC(=O)[C@H](Cc3ccc4ccccc4c3)NC2=O)cc1) [peptide compound SEQ ID NO: 1]

# Target: T2, human IL-23R
# Assay: Human ELISA IL-23/IL-23R binding inhibition
# Settings: human IL-23 coated, recombinant human IL-23R-Fc chimera
# Experimental: Antagonism of peptide compounds for human interleukin-23 receptor inhibitors, was determined by an ELISA assay.
# A 384-well plate was coated with 50 μl/well of human IL-23 at a final concentration of 1 μg/ml and incubated overnight at 4° C. The wells were washed 3 times with 80 μl wash buffer and blocked with 80 μl blocking buffer for 60 minutes at room temperature and washed again. 20 μl of serially diluted test peptides was added to each well and subsequently 20 μl of recombinant human IL-23R-Fc chimera at final concentration of 0.1 μg/ml. The plate was incubated for 60 minutes at room temperature. After the wells were washed, bound IL-23R-Fc was detected with goat anti-hu-lgG1-HRP antibody. Signals were visualized with QuantaBlu Fluorogenic Peroxidase Substrate.
row,Molecule,IC50 [nM]
1,COc1ccc(C[C@@H]2NC(=O)[C@H](C)NC(=O)[C@H](CCC(N)=O)NC(=O)[C@H](Cc3c[nH]c4ccccc34)NC(=O)[C@H]([C@@H](C)O)NC(=O)[C@H](CCCNC(=N)N)NC(=O)[C@H](NC(C)=O)CCCCNC(=O)C[C@@H](C(=O)N[C@@H](CC(N)=O)C(=O)N[C@@H](CC(N)=O)C(N)=O)NC(=O)C(C)(C)NC(=O)[C@H](Cc3ccc4ccccc4c3)NC2=O)cc1 [compound 45] (Ac-[dK]RTWQAY(Me)[2Nal][Aib]DNN-NH2; lactam 1-10),0.96
2,CC(=O)N[C@H]1CC(=O)NCCC[C@@H](C(=O)N[C@@H](CC(N)=O)C(=O)N[C@@H](CC(N)=O)C(N)=O)NC(=O)C(C)(C)NC(=O)[C@H](Cc2ccc3ccccc3c2)NC(=O)[C@H](Cc2ccc(O)cc2)NC(=O)[C@H](CCCNC(=N)N)NC(=O)[C@H](CCC(N)=O)NC(=O)[C@H](Cc2cn(C)c3ccccc23)NC(=O)[C@H]([C@@H](C)O)NC(=O)[C@H](CC(N)=O)NC1=O [compound 33] (Ac-DNT[Trp(1-Me)]QRY[2Nal][Aib][Orn]NN-NH2; lactam 1-10),3.36
3,COc1ccc(C[C@@H]2NC(=O)[C@H](CCCNC(=N)N)NC(=O)[C@H](CCC(N)=O)NC(=O)[C@H](Cc3c[nH]c4ccccc34)NC(=O)[C@H](Cc3c[nH]cn3)NC(=O)[C@H](CC(N)=O)NC(=O)[C@@H](NC(C)=O)CCCCNC(=O)C[C@@H](C(=O)N[C@@H](CC(N)=O)C(=O)N[C@@H](CC(N)=O)C(N)=O)NC(=O)C3(CCOCC3)NC(=O)[C@H](Cc3ccc4ccccc4c3)NC2=O)cc1 [compound 42] (Ac-KNHWQRY(Me)[2Nal][Thp]DNN-NH2; lactam 1-10),18.1
4,COc1ccc(C[C@@H]2NC(=O)[C@H](C)NC(=O)[C@H](CCC(N)=O)NC(=O)[C@H](Cc3c[nH]c4ccccc34)NC(=O)[C@H]([C@@H](C)O)NC(=O)[C@H](CC(N)=O)NC(=O)[C@H](NC(C)=O)CCCCNC(=O)C[C@@H](C(=O)N[C@@H](C)C(=O)N[C@@H](C)C(N)=O)NC(=O)C(C)(C)NC(=O)[C@H](Cc3ccc4ccccc4c3)NC2=O)cc1 [compound 50] (Ac-[dK]NTWQAY(Me)[2Nal][Aib]DAA-NH2; lactam 1-10),8.29
5,COc1ccc(C[C@@H]2NC(=O)[C@H](CCCNC(=N)N)NC(=O)[C@H](CCC(N)=O)NC(=O)[C@H](Cc3c[nH]c4ccccc34)NC(=O)[C@H]([C@@H](C)O)NC(=O)[C@H](CC(N)=O)NC(=O)[C@H](NC(C)=O)CCCNC(=O)CC[C@@H](C(=O)N[C@@H](CC(N)=O)C(=O)N[C@@H](CC(N)=O)C(N)=O)NC(=O)C(C)(C)NC(=O)[C@H](Cc3cccc4ccccc34)NC2=O)cc1 [compound 22] (Ac-[dOrn]NTWQRY(Me)[1Nal][Aib]ENN-NH2; lactam 1-10),48.4
6,COc1ccc(C[C@@H]2NC(=O)[C@H](C)NC(=O)[C@H](CCC(N)=O)NC(=O)[C@H](Cc3c[nH]c4ccccc34)NC(=O)[C@H]([C@@H](C)O)NC(=O)[C@H](CC(N)=O)NC(=O)[C@H](NC(C)=O)CCCCNC(=O)C[C@@H](C(=O)N[C@@H](C)C(=O)N[C@@H](CC(N)=O)C(N)=O)NC(=O)C(C)(C)NC(=O)[C@H](Cc3ccc4ccccc4c3)NC2=O)cc1 [compound 49] (Ac-[dK]NTWQAY(Me)[2Nal][Aib]DAN-NH2; lactam 1-10),3.13
7,COc1ccc(C[C@@H]2NC(=O)[C@H](C)NC(=O)[C@H](CCC(N)=O)NC(=O)[C@H](Cc3c[nH]c4ccccc34)NC(=O)[C@H]([C@@H](C)O)NC(=O)[C@H](CC(N)=O)NC(=O)CCCCNC(=O)C[C@@H](C(=O)N[C@@H](CC(N)=O)C(=O)N[C@@H](CC(N)=O)C(N)=O)NC(=O)C(C)(C)NC(=O)[C@H](Cc3ccc4ccccc4c3)NC2=O)cc1 [compound 44] ([Ava]NTWQAY(Me)[2Nal][Aib]DNN-NH2; lactam N-10),4.66
8,COc1ccc(C[C@@H]2NC(=O)[C@H](CCCNC(=N)N)NC(=O)[C@H](CCC(N)=O)NC(=O)[C@H](Cc3cn(C)c4ccccc34)NC(=O)[C@H]([C@@H](C)O)NC(=O)[C@H](CC(N)=O)NC(=O)[C@@H](NC(C)=O)CC(=O)NCCC[C@@H](C(=O)N[C@@H](CC(N)=O)C(=O)N[C@@H](CC(N)=O)C(N)=O)NC(=O)C(C)(C)NC(=O)[C@H](Cc3ccc4ccccc4c3)NC2=O)cc1 [compound 34] (Ac-DNT[Trp(1-Me)]QRY(Me)[2Nal][Aib][Orn]NN-NH2; lactam 1-10),2.16

# The remaining lines, values ahead:
row,IC50 [nM],Molecule
1,19.5,COc1ccc(C[C@@H]2NC(=O)[C@H](CCCNC(=N)N)NC(=O)[C@H](CCC(N)=O)NC(=O)[C@H](Cc3cn(C)c4ccccc34)NC(=O)[C@H]([C@@H](C)O)NC(=O)[C@H](CC(N)=O)NC(=O)[C@@H](NC(C)=O)CC(=O)NCCC[C@@H](C(=O)N[C@@H](CC(N)=O)C(=O)N[C@@H](CC(N)=O)C(N)=O)NC(=O)C(C)(C)NC(=O)[C@H](Cc3c[nH]c4ccccc34)NC2=O)cc1 [compound 36] (Ac-DNT[Trp(1-Me)]QRY(Me)W[Aib][Orn]NN-NH2; lactam 1-10)
2,4.55,COc1ccc(C[C@@H]2NC(=O)[C@H](CCCNC(=N)N)NC(=O)[C@H](CCC(N)=O)NC(=O)[C@H](Cc3cn(C)c4ccccc34)NC(=O)[C@H]([C@@H](C)O)NC(=O)[C@H](CC(N)=O)NC(=O)[C@@H](NC(C)=O)CCC(=O)NCCC[C@@H](C(=O)N[C@@H](CC(N)=O)C(=O)N[C@@H](CC(N)=O)C(N)=O)NC(=O)C(C)(C)NC(=O)[C@H](Cc3ccc4ccccc4c3)NC2=O)cc1 [compound 35] (Ac-ENT[Trp(1-Me)]QRY(Me)[2Nal][Aib][Orn]NN-NH2; lactam 1-10)
3,3.57,COc1ccc(C[C@@H]2NC(=O)[C@H](CCCNC(=N)N)NC(=O)[C@H](CCC(N)=O)NC(=O)[C@H](Cc3cn(C)c4ccccc34)NC(=O)[C@H]([C@@H](C)O)NC(=O)[C@H](CC(N)=O)NC(=O)[C@@H](NC(C)=O)CC(=O)NCCC[C@@H](C(=O)N[C@@H](CC(N)=O)C(=O)N[C@@H](CC(N)=O)C(N)=O)NC(=O)[C@H](CC(C)C)NC(=O)[C@H](Cc3ccc4ccccc4c3)NC2=O)cc1 [compound 37] (Ac-DNT[Trp(1-Me)]QRY(Me)[2Nal]L[Orn]NN-NH2; lactam 1-10)
4,2.06,COc1ccc(C[C@@H]2NC(=O)[C@H](C)NC(=O)[C@H](CCC(N)=O)NC(=O)[C@H](Cc3c[nH]c4ccccc34)NC(=O)[C@H]([C@@H](C)O)NC(=O)[C@H](CC(N)=O)NC(=O)[C@H](NC(C)=O)CCCCNC(=O)C[C@@H](C(=O)N[C@@H](CC(N)=O)C(=O)N[C@@H](C)C(N)=O)NC(=O)C(C)(C)NC(=O)[C@H](Cc3ccc4ccccc4c3)NC2=O)cc1 [compound 48] (Ac-[dK]NTWQAY(Me)[2Nal][Aib]DNA-NH2; lactam 1-10)
5,1.44,COc1ccc(C[C@@H]2NC(=O)[C@H](C)NC(=O)[C@H](CCC(N)=O)NC(=O)[C@H](Cc3c[nH]c4ccccc34)NC(=O)[C@H]([C@@H](C)O)NC(=O)[C@H](CC(N)=O)NC(=O)CCCCCNC(=O)C[C@@H](C(=O)N[C@@H](CC(N)=O)C(=O)N[C@@H](CC(N)=O)C(N)=O)NC(=O)C(C)(C)NC(=O)[C@H](Cc3ccc4ccccc4c3)NC2=O)cc1 [compound 43] ([Ahx]NTWQAY(Me)[2Nal][Aib]DNN-NH2; lactam N-10)
6,1.38,COc1ccc(C[C@@H]2NC(=O)[C@H](C)NC(=O)[C@H](CCC(N)=O)NC(=O)[C@H](Cc3c[nH]c4ccccc34)NC(=O)[C@H](CCCNC(=N)N)NC(=O)[C@H](CC(N)=O)NC(=O)[C@H](NC(C)=O)CCCCNC(=O)C[C@@H](C(=O)N[C@@H](CC(N)=O)C(=O)N[C@@H](CC(N)=O)C(N)=O)NC(=O)C(C)(C)NC(=O)[C@H](Cc3ccc4ccccc4c3)NC2=O)cc1 [compound 46] (Ac-[dK]NRWQAY(Me)[2Nal][Aib]DNN-NH2; lactam 1-10)
